Reference: PMC6048956, “A Double-Blind, Placebo-Controlled Trial Demonstrating the Safety, Tolerability, and Pharmacokinetics of Single, Escalating Oral Doses of RTI-336” (Frontiers in Pharmacology, 2018)
“Also recorded” adds a separate entry of the source. Like-named read-outs stand apart in the source and are kept apart here.

What was measured:
rhesus monkey = tested on: rhesus monkey; design: method as in Carroll et al., 2006a,b; Carroll, 2007; Howell et al., 2007; details: rhesus monkey model, ref Carroll et al., 2006a,b, 2007, Howell et al.; cited from earlier work
rats [1] = details: rats co-administered RTI-336 with cocaine, ref data on file; cited from earlier work
rats [2] = details: acute and reversible with reduced dosing, preclinical toxicology; cited from earlier work
dopamine reuptake = dopamine reuptake (Homo sapiens, UniProt Q01959); test: Inhibition of dopamine reuptake; format: biochemical
rat = tested on: rat; design: method as in Carroll et al., 2006a,b; Carroll, 2007; Howell et al., 2007; details: rat model, ref Carroll et al., 2006a,b, 2007, Howell et al.; cited from earlier work
[3] = tested on: healthy male participants; test: Safety and tolerability of single, escalating oral doses (trial RTI-336-001); format: in vivo, human; details: for serum total bilirubin elevation: day 3 post-dose
Procedure: (§1) RTI-336-001 was a single-center, double-blind, placebo-controlled, and randomized clinical trial to evaluate the safety, tolerability, and PK of single, escalating oral doses of RTI-336 (0.3, 1, 3, 6, 12, and 20 mg) in 2 cohorts (lowest 3 doses and highest 3 doses) of healthy male participants. RTI-336 and placebo capsules were identical in appearance, and participants, care providers, and those assessing outcomes were blinded to study drug assignment. Each cohort was to be enrolled in 2 groups of 5 participants (randomized 4:1 drug:placebo independently at each dose); the second group was dosed 24 h after the first group, following a safety review of the first group. Each participant would receive up to 3 single, escalating oral doses (in periods 1, 2, and 3) of study drug under fasting conditions, with a minimum of 10 days between doses, and could only participate in one cohort. The number of participants is typical for first-in-man safety and PK studies, and the trial ran to completion.
Orthostatic vital signs (HR, systolic and diastolic blood pressure, and respiratory rate) were obtained pre-dose and at 1, 2, 4, 8, 12, 24, and 48 h post-dose. Body weight was measured at screening, on admissions to the clinic for dosing, and at 7 days following their final dose. Physical examinations of all major organ systems (including neurological examination) were performed at admission and at 48 h post-dose. Adverse events (AEs) were monitored from dosing until 8 days post-dose or resolution, whichever was longer.
Six-lead ECG telemetry was monitored from 15 min pre-dose until 8 h post-dose. Supine 12-lead ECGs were obtained pre-dose and at 1, 2, 4, 8, 12, 24, and 48 h post-dose.
Urine for urinalysis (bacteria, bilirubin, blood, glucose, ketones, leukocyte esterase, nitrite, pH, protein, red blood cells, specific gravity, urobilinogen, and WBC) was collected pre-dose and 48 h post-dose. Unfasted blood samples for chemistry (including troponin, albumin, alkaline phosphatase, ALT, AST, BUN, calcium, chloride, CK, creatinine, GGT, globulin, glucose, LDH, phosphorus, potassium, sodium, total bilirubin, total cholesterol, total protein, triglycerides, and uric acid) and hematology (basophils, eosinophils, Hct, Hgb, lymphocytes, RBC indices, monocytes, neutrophils, platelets, RBC, and WBC) were obtained on admission and fasted samples at 48 h post-dose.
The Mini Mental Status Examination (MMSE) ([Folstein et al., 1975]; [Malloy et al., 1997]) was performed on admission to the clinic and at 4 and 8 h post-dose.

mice [4] = test: Preclinical toxicology, seizures in mice
[5] = co-administration with morphine; ref data on file, RTI; cited from earlier work
dog = details: 3 mg/kg, 22 h after the dose, preclinical toxicology; cited from earlier work
[6] = Plasma pharmacokinetics after single oral doses of RTI-336 in healthy males; format: in vivo, human; details: for half-life / AUC(0-inf) / Cmax / Tmax: male, human, plasma; for half-life: po
Procedure: as §1
Blood samples were obtained at 0.25, 0.5, 1, 1.5, 2, 3, 4, 6, 8, 12, 16, 24, 30, 36, and 48 h post-dose. Cumulative urine specimens were collected over the intervals 0–6, 6–12, 12–24, 24–36, and 36–48 h post-dose.

mice [7] = details: up to 75 mg/kg, preclinical toxicology; cited from earlier work
[8] = co-administration with ethanol, ref data on file, RTI, cited from earlier work
monkeys [9] = details: acute and reversible with reduced dosing, preclinical toxicology; cited from earlier work
[10] = preclinical toxicology; cited from earlier work
monkeys [11] = details: 9 mg/kg/day, 14-day; cited from earlier work
[12] = humans, single oral doses up to 20 mg
[13] = single oral dose 1 mg, fasted, healthy males
[14] = single oral dose 3 mg, fasted, healthy males
[15] = single oral dose 6 mg, fasted, healthy males
[16] = single oral dose 12 mg, fasted, healthy males
[17] = single oral dose 20 mg, fasted, healthy males

dopamine reuptake, sequence (Q01959 whole entry): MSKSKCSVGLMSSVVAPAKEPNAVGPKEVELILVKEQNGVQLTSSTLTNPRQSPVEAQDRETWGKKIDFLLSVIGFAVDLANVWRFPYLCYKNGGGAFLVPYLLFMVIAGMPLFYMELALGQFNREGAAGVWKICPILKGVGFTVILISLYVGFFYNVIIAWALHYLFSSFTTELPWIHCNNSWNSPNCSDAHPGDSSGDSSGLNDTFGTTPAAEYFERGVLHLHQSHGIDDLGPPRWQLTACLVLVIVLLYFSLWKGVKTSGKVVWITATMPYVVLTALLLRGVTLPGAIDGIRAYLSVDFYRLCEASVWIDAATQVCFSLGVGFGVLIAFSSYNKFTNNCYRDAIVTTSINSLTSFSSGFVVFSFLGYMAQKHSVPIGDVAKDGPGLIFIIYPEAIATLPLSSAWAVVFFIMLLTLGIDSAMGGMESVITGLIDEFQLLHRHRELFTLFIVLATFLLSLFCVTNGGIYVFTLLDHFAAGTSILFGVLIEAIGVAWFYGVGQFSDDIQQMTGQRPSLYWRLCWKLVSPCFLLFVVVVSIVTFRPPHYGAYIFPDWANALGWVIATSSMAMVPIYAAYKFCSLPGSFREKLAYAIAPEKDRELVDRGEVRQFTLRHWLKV

## Cc1ccc(-c2cc([C@@H]3C4CCC(C[C@@H]3c3ccc(Cl)cc3)N4C)on2)cc1 (some centres unmarked) [RTI-336]
Rhesus monkey
  cocaine self-administration: suppresses cocaine self-administration
Rats [1]
  effect on acute toxicity of cocaine: no potentiation of the acute toxicity of cocaine
Rats [2]
  central nervous system adverse effects: central nervous system stimulation with hyperactivity and stereotypic behavior
Dopamine reuptake
  IC50: 23 nM
rat
  cocaine self-administration: suppresses cocaine self-administration
[3]; 2 participants, transient and mild, resolved by day 8
  serum total bilirubin elevation: < 1.5 × ULN
[3]; 4 and 8 h post-dose
  effects on the MMSE: No effects were observed
[3]; cumulative dose 6 mg or greater
  participants with AEs: 4 of 11
[3]; cumulative doses less than 6 mg
  participants with AEs: 3 of 10
[3]; [12]
  ECG abnormalities: no ECG abnormalities
  behavioral stimulation (hyperactivity, stereotypic behavior): no such behavioral stimulation
[3]; participant S031, cohort 1, period 2, 1 mg
  Adverse events: Body temperature decreased
[3]; participant S031, cohort 1, period 3, 3 mg, cumulative 4 mg
  Adverse events: Body temperature decreased, chalazion
[3]; participant S038, cohort 1, following 3 mg, cumulative 3.3 mg, possibly related to study drug
  Adverse events: Somnolence^b
[3]; participant S046, 1 mg
  serum total bilirubin elevation: 1.08 × ULN
[3]; participant S046, 1 mg, day 3 post-dose (ULN 20.5; 13.68 pre-dose, 8.55 day 8)
  total bilirubin: 22.23
[3]; participant S046, 3 mg
  serum total bilirubin elevation: 1.001 × ULN
[3]; participant S046, 3 mg, day 3 post-dose (6.84 pre-dose, 5.13 day 8)
  total bilirubin: 20.52
[3]; participant S059, cohort 2, 6 mg
  Adverse events: Soft tissue inflammation
[3]; participant S069, 6 mg
  serum total bilirubin elevation: 1.25 × ULN
[3]; participant S069, 6 mg, day 3 post-dose (10.26 pre-dose, 10.26 day 8)
  total bilirubin: 25.65
[3]; participant S069, cohort 2, 6 mg, related to their activities, not to study drug
  Adverse events: Blood creatine phosphokinase increased
[3]; participant S078, cohort 2, 6, 12, 20 mg, cumulative 38 mg
  Adverse events: Nasal congestion, pharyngolaryngeal pain
[3]; single oral doses 0.3-20 mg
  effects on other chemistry or hematology, urinalysis, vital sign, or ECG results: No systematic RTI-336 effects were observed
[3]; single oral doses 0.3-20 mg, healthy males
  tolerability: well-tolerated up to the maximum evaluated dose of 20 mg; also recorded: well-tolerated at single doses of up to 20 mg; also recorded: free of significant side effects or toxicity
[3]; single oral doses up to 20 mg
  maximum tolerated dose: not identified
Mice [4]
  highest seizure-free dose (75 mg/kg) relative to oral ED50 for spontaneous locomotor activity: 7.5 fold
[5]
  effect on morphine-related analgesia: did not affect morphine-related analgesia
  effect on weight loss: did increase weight loss
dog
  seizures: observed only in one dog
[6]; 1-20 mg single oral dose range
  dose proportionality of plasma drug exposure (AUC0-inf) and Cmax: increased in proportion to dose; also recorded: increased dose proportionally
[6]; across 1-20 mg single oral dose levels, fasted
  time of peak plasma RTI-336 concentration: around 4 h
[6]; 1 mg, single oral dose 1 mg, fasted, healthy males, read-out: t1/2 (converted)
  half-life: 5.44 h
[6]; 3 mg, single oral dose 3 mg, fasted, healthy males, read-out: t1/2 (converted)
  half-life: 7.07 h
[6]; 6 mg, single oral dose 6 mg, fasted, healthy males, read-out: t1/2 (converted)
  half-life: 17.9 h
[6]; 12 mg, single oral dose 12 mg, fasted, healthy males, read-out: t1/2 (converted)
  half-life: 15.3 h
[6]; 20 mg, across 6, 12 and 20 mg single oral doses, read-out: plasma half-life (converted)
  half-life: ~17 h
[6]; 20 mg, single oral dose 20 mg, fasted, healthy males, read-out: t1/2 (converted)
  half-life: 18 h
[6]; [13]
  AUC(0-inf): 3.8 ng·h/mL
  Cmax: 0.375 ng/mL
  Tmax: 4.5 h
[6]; [14]
  AUC(0-inf): 12.3 ng·h/mL
  Cmax: 1.04 ng/mL
  Tmax: 3.71 h
[6]; [15]
  AUC(0-inf): 40.4 ng·h/mL
  Cmax: 3.26 ng/mL
  Tmax: 4.38 h
[6]; [16]
  AUC(0-inf): 63.1 ng·h/mL
  Cmax: 5.23 ng/mL
  Tmax: 3.67 h
[6]; [17]
  AUC(0-inf): 115 ng·h/mL
  Cmax: 10.3 ng/mL
  Tmax: 3.43 h
Mice [7]
  seizures: did not occur
[8]
  effect on ethanol-related mortality: did not increase ethanol-related mortality
[8]; rota-rod performance
  effect on ethanol-induced incoordination: reduced ethanol-induced incoordination
Monkeys [9]
  central nervous system adverse effects: central nervous system stimulation with hyperactivity and stereotypic behavior
[10]
  cardiovascular effects: low potential for prolonging QTc interval
Monkeys [11]
  hepatotoxicity: increased ALT activity and/or bilirubin and mild-to-moderate diffuse or centrilobular vacuolar degeneration in hepatocytes
